Columns and labels:
[1] = test system: participants with neurologically complete thoracic spinal cord injury (T3-T11); test: Phase 1 thoracic SCI trial (NCT01217008): safety, adverse events; type: in vivo, human; settings: N=5
Experimental: Study design. The trial design was an open-label, multicenter study. A single dose of 2×10^6 LCTOPC1 was injected within 7 to 14 days following SCI. Subjects who received LCTOPC1 also received tacrolimus to prevent rejection.
This study was a Phase 1, multi-center, non-randomized, a single group assignment interventional clinical trial. The Participants were enrolled from one of seven centers in the United States. The study was registered (NCT01217008) and the primary endpoint was safety, as measured by the frequency and severity of adverse events related to LCTOPC1, the injection procedure used to administer LCTOPC1, and/or the concomitant immunosuppression administered. The secondary endpoint was neurological function as measured by sensory scores and lower extremity motor scores on ISNCSCI examinations.
Safety Assessments. The primary endpoint of the Phase 1 clinical trial was safety, as measured by the frequency and severity of adverse events (AEs) within 1 year of LCTOPC1 injection that were related to LCTOPC1, the injection procedure used to administer LCTOPC1, and/or the concomitant immunosuppression administered. […]
Definition of an Adverse Event. […] The severity of AEs and the characterization of Serious Adverse Events (SAEs) were evaluated using standard FDA criteria.
The relationship of AEs to the investigational drug was determined by each site investigator and was categorized as “Possibly Related” based on the following criteria: 1) the AE was reasonably related in time with LCTOPC1 exposure, the injection procedure used to administer LCTOPC1, and/or the concomitant immunosuppression administered AND 2) the AE could be explained either by exposure to the investigational product or equally well by factors or causes other than exposure to the investigational product. Adverse events were monitored by the External Medical Monitor, Sponsor Medical Monitor, and DSMB.

[2] = test system: subjects with subacute cervical spinal cord injury (C4-C7, AIS A/B); test: Phase 1/2a cervical SCI dose escalation study: safety, adverse events, MRI; type: in vivo, human
Experimental: Study Design. The trial design was an open-label, staggered dose escalation, cross-sequential, multicenter study. Three sequential, escalating doses of AST-OPC1 were administered at a single tie point between 21 and 42 days post-injury to subjects with subacute cervical spinal cord injuries (SCI). Subjects received AST-OPC1 via direct intra-spinal injection using a Syringe Positioning Device (SPD). To prevent rejection of engraftment, low dose tacrolimus was initiated 6 to 12 hours after and intra-spinal injection, and continued for 46 days, tapered from Day 46 to Day 60, and was discontinued at Day 60. Subjects were followed for 1 year following administration of AST-OPC1 under this protocol. Male or female subjects from 18 to 69 years of age at time of consent with sensorimotor complete, traumatic SCI (American Spinal Injury Association Impairment Scale A) or sensorimotor incomplete, traumatic SCI (American Spinal Injury Association Impairment Scale B). […] There was a single spinal cord lesion on a post-stabilization magnetic resonance imaging (MRI) scan, with sufficient visualization of the spinal cord injury epicenter and lesion margins to enable post-injection safety monitoring. Subjects were able to participate in an elective surgical procedure to inject AST-OPC1 21 to 42 days following SCI. Subjects received a single dose of either 2×10^6, 1×10^7, or 2×10^7 AST-OPC1 viable cells by injection, administered 21 to 42 days following SCI. The product was delivered intraoperatively into the spinal cord using the Syringe Positioning Device. The AST-OPC1 batch numbers used in this study were M08D1A, M22D1A and M25D1A. Single administration of AST-OPC1 was provided with 1 year of follow-up. Schematics of the planned study timeline, and subject screening and treatment, are provided in FIG. 6 and FIG. 7, respectively. A schematic diagram of the final open-label, staggered dose-escalation, multicenter Phase 1/2a clinical trial is shown in FIG. 8. An overview of study visits for the one-year protocol is presented in the study schema in FIG. 9.
A neurological examination was completed using the standardized International Standards for Neurological Classification of Spinal Cord Injury (ISNCSCI) examination for motor and sensory testing and for designation of the American Spinal Injury Association impairment scale. The ISNCSCI is used for efficacy with respect to improved motor function in the extremities, improved sensory function, and/or a descending neurological level. Safety assessments included physical examination, vital signs, ISNCSCI neurological examination, pain questionnaire (International Spinal Cord Injury Pain Basic Data Set, ISCIPBDS), electrocardiogram (ECG), Magnetic Resonance Imaging (MRI), laboratory tests, concomitant medications, and adverse events (AEs). Results for the ISNCSCI were listed for each subject by scheduled visit and analyzed by change in motor level and motor scores as well as other exploratory assessments of arm/hand function, self-care ability and overall volitional performance. Adverse events were tabulated by system organ class and by preferred term within system organ class according to the Medical Dictionary for Regulatory Activities (MedDRA®) Version 18.0. Statistical analysis of the safety data was performed using descriptive statistical methods including AEs incidence, severity and relatedness to AST-OPC1, to the injection procedure for product administration, and concomitant immunosuppression with tacrolimus. The number of laboratory assessments (hematology, clinical chemistry) that were below, within, or above the normal laboratory reference range were summarized for each analyte at scheduled study visits. Vital signs were summarized by calculating the mean, standard deviation, median, and range of values at each of the protocol-specified time points.
Study Endpoints. […]

[3] = test system: dorsal funicular lesion (DFL) SCI model; settings: cited from earlier work

Molecule | Grade 1 AEs possibly related specifically to tacrolimus (number) [1] | Grade 2 AEs possibly related specifically to tacrolimus (number) [1] | AEs possibly related specifically to the immunosuppression (number of the 25) ([1]; tacrolimus to Day 60, trough 3 to 7 ng/mL) | Hypomagnesemia: Days from Injection ([2]; both, human, in vivo) [days] | Nausea: Days from Injection ([2]; both, human, in vivo) [days] | Decreased Appetite: Severity ([2]; both, human, in vivo, 365 days) | Hypomagnesemia: Severity ([2]; both, human, in vivo, 365 days) | Nausea: Severity ([2]; both, human, in vivo, 365 days) | Bacterial infection: Days from Injection ([2]; causality Tacrolimus) [days] | Bacterial infection: Outcome ([2]; causality Tacrolimus) | Bacterial infection: Severity ([2]; causality Tacrolimus) | Decreased Appetite: Outcome ([2]; in vivo) | Hypomagnesemia: Outcome ([2]; in vivo) | Nausea: Outcome ([2]; in vivo) | Acute scarring and wound cavitation ([3]; DFL SCI model, adult rats) | Axonal regrowth ([3]; acute and chronic experiments, vs PBS-treated DFL) | Inflammation, glial scar formation and CSPG expression ([3]; after acute spinal cord injury)
C=CC[C@@H]1/C=C(\C)C[C@H](C)C[C@H](OC)[C@H]2O[C@@](O)(C(=O)C(=O)N3CCCC[C@H]3C(=O)O[C@H](/C(C)=C/[C@@H]3CC[C@@H](O)[C@H](OC)C3)[C@H](C)[C@@H](O)CC1=O)[C@H](C)C[C@@H]2OC [Tacrolimus, tacrolimus] | Seven | nine | Sixteen | 5 to 43 | 7 | Grade 2 | Grade 1-2 | Grade 2 | 30 | Resolved | Grade 3 | Resolved | Resolved | Resolved | – | – | –
Decorin: small leucine-rich proteoglycan, TGF-β1/2 antagonist; recombinant form tested in rat SCI models (protein, UniProt P07585 31-359, looked up) Decorin: DEASGIGPEVPDDRDFEPSLGPVCPFRCQCHLRVVQCSDLGLDKVPKDLPPDTTLLDLQNNKITEIKDGDFKNLKNLHALILVNNKISKVSPGAFTPLVKLERLYLSKNQLKELPEKMPKTLQELRAHENEITKVRKVTFNGLNQMIVIELGTNPLKSSGIENGAFQGMKKLSYIRIADTNITSIPQGLPPSLTELHLDGNKISRVDAASLKGLNNLAKLGLSFNSISAVDNGSLANTPHLRELHLDNNKLTRVPGGLAEHKYIQVVYLHNNNISVVGSSDFCPPGHNTKKASYSGVSLFSNPVQYWEIQPSTFRCVYVRSAIQLGNYK | – | – | – | – | – | – | – | – | – | – | – | – | – | – | suppressed acute scarring (fibrogenesis) and wound cavitation | promoted axonal regrowth | inhibit inflammation, glial scar formation and CSPG expression

— patent US20240082311A1, “COMPOSITIONS AND METHODS FOR TREATING SPINAL CORD INJURIES” (ASTERIAS BIOTHERAPEUTICS, INC., priority 2021, published 2024)
